# Measurements: US20250144054A1, “SMALL MOLECULE STAT3 INHIBITOR FOR TREATING TRIPLE NEGATIVE BREAST CANCER” (UNIVERSITY OF MARYLAND, BALTIMORE, priority 2022, published 2025)
# Where “and” joins values, the source holds several entries; their conditions need not be identical. Equal values may be shown once.
# Test system: STAT3
# Test: Western blot of P-STAT3 (Y705), STAT3, Cyclin D1, Cleaved Caspase-3 in MDA-MB-231 cells
# Format: cell-based, human
# Conditions: MDA-MB-231, overnight
# Method: (A) MDA-MB-231, SUM159, and 4T1 cell lines were treated with DMSO or LLL12B overnight and the expression levels of P-STAT3 (Y705), STAT3, Cyclin D1, and Cleaved Caspase-3 were analyzed by Western blot. GAPDH served as a protein loading control. (B) MDA-MB-231 cells were treated with DMSO or C188-9 overnight and the expression levels of P-STAT3 (Y705), STAT3, Cyclin D1, and Cleaved Caspase-3 were analyzed by Western blot. (C) MDA-MB-231, SUM159, and 4T1 cells were seeded in a 96-well plate and treated with DMSO or LLL12B for 5 hours and a Caspase-3/7 Fluorescence Assay Kit was used to detect the activation of caspase-3/7. (D) MDA-MB-231, SUM159, and 4T1 cell lines were treated with DMSO or LLL12B for 8-12 hours, and flow cytometry was performed to analyze annexin V and PI staining. The quantification of apoptotic cells was shown in the right panel. ** P<0.01, *** P<0.001 and ****P<0.0001.
# SiRNA and transfection. STAT3 siRNA and Negative Control siRNA (Cell Signaling Technology, Danvers, MA, USA) were used to knock down STAT3 in MDA-MB-231, SUM159, and 4T1 cell lines. Cells were transfected with STAT3 siRNA or Negative Control siRNA using Lipofectamine RNAiMAX (Invitrogen, Carlsbad, CA, USA) according to the manufacturer's instructions. After 72 hours, cell viability was examined by MTT cell viability assay, and the transfection efficiency was examined by western blot.
# Western blot. Cells were collected and total protein was extracted using cell lysis buffer (Cell Signaling Technology, Danvers, MA, USA). Protein concentration was determined using the Pierce BCA Protein Assay Kit (Thermo Fisher Scientific, Waltham, MA, USA) according to the manufacturer's instructions. Equal amounts of protein were separated by 10% SDS-PAGE gels and transferred to PVDF membranes. Membranes were blocked in 5% non-fat milk at room temperature and probed with specific antibodies P-STAT3 (Y705), STAT3, Cyclin D1, Cleaved Caspase-3, P-STAT1 (Y701), STAT1, P-ERK, ERK or GAPDH (1:1000, Cell Signaling Technology, Danvers, MA, USA) at 4° C. overnight. The blots were visualized using SuperSignal™ West Femto Maximum Sensitivity Substrate (Thermo Fisher Scientific, Waltham, MA, USA) and an Amersham Imager 680 (GE Healthcare Life Sciences, Marlborough, MA, USA) after incubating with horseradish peroxidase (HRP)-conjugated anti-rabbit secondary antibody (1:5000, Cell Signaling Technology, Danvers, MA, USA).
smiles,measurement,value
"COc1ccc(S(=O)(=O)Nc2cc(-c3c(O)ccc4ccccc34)c(O)c3ccccc23)cc1 [C188-9, reference compound]",concentration that inhibited P-STAT3 and Cyclin D1 in Western blot,25 µM and 50 µM
